According to paper PMC6437697 (Journal of Medicinal Chemistry, 2019):

What was measured:
Test in all cases: KINOMEscan
Format in all cases: binding
Conditions in all cases: read-out: % control activity remaining
[1] = target: T1, PFTAIRE2 (Homo sapiens, UniProt Q96Q40)
T1 construct: purchased Eurofins DiscoverX KINOMEscan

[2] = target: T2, CDKL3 (Homo sapiens, UniProt Q8IVW4)
T2 construct: purchased Eurofins DiscoverX KINOMEscan

[3] = target: T3, TYRO3 (Homo sapiens, UniProt Q06418)
T3 construct: purchased Eurofins DiscoverX KINOMEscan
T3 sequence (Q06418 41-890): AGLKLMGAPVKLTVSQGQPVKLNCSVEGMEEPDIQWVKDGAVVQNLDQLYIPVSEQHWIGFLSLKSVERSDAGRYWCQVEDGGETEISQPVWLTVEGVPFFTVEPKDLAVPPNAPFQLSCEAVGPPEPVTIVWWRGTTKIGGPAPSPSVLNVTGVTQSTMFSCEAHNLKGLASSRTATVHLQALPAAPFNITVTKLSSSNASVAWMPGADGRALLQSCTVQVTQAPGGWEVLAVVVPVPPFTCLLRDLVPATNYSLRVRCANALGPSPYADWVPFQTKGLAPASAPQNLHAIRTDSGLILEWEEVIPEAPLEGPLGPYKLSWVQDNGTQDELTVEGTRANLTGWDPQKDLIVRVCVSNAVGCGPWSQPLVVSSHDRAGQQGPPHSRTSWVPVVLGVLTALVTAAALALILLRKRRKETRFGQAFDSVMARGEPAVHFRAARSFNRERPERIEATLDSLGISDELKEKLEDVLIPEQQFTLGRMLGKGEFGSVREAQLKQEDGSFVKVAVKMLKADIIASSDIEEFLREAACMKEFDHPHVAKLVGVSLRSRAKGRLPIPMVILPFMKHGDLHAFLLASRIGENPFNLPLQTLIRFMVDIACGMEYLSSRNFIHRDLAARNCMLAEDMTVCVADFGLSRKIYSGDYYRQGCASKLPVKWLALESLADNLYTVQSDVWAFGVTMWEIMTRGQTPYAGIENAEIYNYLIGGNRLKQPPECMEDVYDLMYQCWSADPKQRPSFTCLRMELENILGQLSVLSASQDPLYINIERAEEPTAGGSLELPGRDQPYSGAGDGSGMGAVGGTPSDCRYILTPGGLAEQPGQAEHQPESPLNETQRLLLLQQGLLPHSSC

[4] = target: T4, MYLK4 (Homo sapiens, UniProt Q86YV6)
T4 construct: purchased Eurofins DiscoverX KINOMEscan
T4 sequence (Q86YV6 1-388): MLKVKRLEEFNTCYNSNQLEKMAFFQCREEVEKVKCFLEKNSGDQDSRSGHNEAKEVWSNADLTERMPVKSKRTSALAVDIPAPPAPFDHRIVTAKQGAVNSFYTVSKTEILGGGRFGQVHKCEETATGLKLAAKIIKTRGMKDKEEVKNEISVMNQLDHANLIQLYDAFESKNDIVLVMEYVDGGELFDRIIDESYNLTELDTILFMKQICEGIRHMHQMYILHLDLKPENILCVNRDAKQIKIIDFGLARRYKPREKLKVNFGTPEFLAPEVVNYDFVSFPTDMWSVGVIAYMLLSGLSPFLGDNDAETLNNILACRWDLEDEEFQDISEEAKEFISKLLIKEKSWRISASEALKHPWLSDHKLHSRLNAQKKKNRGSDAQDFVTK

[5] = target: T5, RET(V804L) (Homo sapiens, UniProt P07949, V804L)
T5 construct: purchased Eurofins DiscoverX KINOMEscan
T5 sequence (P07949 29-1114 V804L): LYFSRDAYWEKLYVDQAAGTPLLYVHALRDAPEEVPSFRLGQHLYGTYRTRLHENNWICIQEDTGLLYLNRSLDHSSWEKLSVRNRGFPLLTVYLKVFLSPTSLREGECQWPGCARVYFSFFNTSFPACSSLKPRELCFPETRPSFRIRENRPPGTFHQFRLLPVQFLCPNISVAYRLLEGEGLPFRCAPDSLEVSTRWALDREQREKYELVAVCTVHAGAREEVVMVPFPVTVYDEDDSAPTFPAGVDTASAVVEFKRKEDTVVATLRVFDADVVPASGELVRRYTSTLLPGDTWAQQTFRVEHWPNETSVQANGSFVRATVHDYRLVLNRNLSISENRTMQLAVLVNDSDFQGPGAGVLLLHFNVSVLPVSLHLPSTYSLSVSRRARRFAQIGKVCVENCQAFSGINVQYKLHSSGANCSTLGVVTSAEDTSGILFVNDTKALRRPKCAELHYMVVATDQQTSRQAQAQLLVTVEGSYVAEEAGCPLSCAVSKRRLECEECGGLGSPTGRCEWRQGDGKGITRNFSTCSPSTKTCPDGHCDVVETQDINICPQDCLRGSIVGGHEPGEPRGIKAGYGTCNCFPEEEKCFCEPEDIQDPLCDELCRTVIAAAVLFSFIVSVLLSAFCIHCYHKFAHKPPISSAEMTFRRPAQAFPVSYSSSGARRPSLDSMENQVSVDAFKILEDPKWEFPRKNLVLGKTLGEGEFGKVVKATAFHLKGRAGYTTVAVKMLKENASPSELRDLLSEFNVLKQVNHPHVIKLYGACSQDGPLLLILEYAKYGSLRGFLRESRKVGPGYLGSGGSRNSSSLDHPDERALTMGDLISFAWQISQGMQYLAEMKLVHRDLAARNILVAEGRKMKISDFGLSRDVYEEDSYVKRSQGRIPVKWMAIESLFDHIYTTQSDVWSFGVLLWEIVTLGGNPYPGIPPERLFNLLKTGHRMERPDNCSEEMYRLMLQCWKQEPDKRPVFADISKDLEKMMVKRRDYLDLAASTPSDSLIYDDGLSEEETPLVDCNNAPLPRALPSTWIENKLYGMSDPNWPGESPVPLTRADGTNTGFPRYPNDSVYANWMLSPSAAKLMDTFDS

[6] = target: T6, YES (Homo sapiens, UniProt P07947)
T6 construct: purchased Eurofins DiscoverX KINOMEscan

[7] = target: T7, RET (Homo sapiens, UniProt P07949)
T7 construct: purchased Eurofins DiscoverX KINOMEscan
T7 sequence (P07949 29-1114): as the sequence (P07949 29-1114 V804L) above, with L776V counted along it

[8] = target: T8, PLK3 (Homo sapiens, UniProt Q9H4B4)
T8 construct: purchased Eurofins DiscoverX KINOMEscan
T8 sequence (Q9H4B4 whole entry): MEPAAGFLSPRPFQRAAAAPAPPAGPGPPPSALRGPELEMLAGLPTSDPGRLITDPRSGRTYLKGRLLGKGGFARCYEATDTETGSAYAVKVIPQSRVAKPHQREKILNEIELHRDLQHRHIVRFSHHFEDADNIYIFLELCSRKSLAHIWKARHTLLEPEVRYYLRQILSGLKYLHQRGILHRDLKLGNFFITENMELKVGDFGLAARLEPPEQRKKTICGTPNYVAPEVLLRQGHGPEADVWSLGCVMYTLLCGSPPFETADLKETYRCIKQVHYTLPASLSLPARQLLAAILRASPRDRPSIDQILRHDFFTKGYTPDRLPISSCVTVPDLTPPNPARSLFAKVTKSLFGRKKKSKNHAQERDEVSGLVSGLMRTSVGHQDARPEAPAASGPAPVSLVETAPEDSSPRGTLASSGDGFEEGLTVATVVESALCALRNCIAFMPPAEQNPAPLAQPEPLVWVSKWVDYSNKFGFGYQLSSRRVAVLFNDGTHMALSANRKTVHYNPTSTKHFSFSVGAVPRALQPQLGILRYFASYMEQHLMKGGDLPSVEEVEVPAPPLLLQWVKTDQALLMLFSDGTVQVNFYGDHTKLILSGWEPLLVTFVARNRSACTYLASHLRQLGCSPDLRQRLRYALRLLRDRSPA

[9] = target: T9, PCTK3 (Homo sapiens, UniProt Q07002)
T9 construct: purchased Eurofins DiscoverX KINOMEscan
T9 sequence (Q07002 whole entry): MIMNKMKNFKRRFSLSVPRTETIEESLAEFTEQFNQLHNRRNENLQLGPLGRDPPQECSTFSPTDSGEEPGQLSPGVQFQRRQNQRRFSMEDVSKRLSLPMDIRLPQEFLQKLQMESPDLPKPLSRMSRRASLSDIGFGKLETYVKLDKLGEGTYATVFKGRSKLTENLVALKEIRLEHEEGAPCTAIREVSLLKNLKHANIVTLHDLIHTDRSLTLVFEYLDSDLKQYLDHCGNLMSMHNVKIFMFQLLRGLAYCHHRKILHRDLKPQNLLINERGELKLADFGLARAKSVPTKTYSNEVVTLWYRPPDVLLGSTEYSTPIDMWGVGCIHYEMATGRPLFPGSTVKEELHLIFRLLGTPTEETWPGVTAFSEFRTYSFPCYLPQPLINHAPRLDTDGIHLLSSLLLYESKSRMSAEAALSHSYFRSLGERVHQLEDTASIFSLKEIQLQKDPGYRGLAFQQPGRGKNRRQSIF

[10] = target: T10, ACVRL1 (Homo sapiens, UniProt P37023)
T10 construct: purchased Eurofins DiscoverX KINOMEscan
T10 sequence (P37023 22-503): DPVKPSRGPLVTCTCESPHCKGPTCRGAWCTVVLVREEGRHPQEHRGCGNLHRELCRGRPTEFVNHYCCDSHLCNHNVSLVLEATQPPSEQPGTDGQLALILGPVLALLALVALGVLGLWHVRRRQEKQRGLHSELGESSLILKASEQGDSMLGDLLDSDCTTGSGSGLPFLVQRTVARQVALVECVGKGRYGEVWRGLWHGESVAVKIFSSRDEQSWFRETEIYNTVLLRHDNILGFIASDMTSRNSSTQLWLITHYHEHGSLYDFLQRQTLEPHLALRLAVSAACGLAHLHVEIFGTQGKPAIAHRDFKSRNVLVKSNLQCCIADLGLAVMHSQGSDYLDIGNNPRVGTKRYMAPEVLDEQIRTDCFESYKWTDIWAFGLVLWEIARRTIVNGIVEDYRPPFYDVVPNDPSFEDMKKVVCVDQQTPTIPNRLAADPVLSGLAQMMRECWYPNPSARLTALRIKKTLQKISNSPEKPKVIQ

[11] = target: T11, PKN2 (Homo sapiens, UniProt Q16513)
T11 construct: purchased Eurofins DiscoverX KINOMEscan
T11 sequence (Q16513 whole entry): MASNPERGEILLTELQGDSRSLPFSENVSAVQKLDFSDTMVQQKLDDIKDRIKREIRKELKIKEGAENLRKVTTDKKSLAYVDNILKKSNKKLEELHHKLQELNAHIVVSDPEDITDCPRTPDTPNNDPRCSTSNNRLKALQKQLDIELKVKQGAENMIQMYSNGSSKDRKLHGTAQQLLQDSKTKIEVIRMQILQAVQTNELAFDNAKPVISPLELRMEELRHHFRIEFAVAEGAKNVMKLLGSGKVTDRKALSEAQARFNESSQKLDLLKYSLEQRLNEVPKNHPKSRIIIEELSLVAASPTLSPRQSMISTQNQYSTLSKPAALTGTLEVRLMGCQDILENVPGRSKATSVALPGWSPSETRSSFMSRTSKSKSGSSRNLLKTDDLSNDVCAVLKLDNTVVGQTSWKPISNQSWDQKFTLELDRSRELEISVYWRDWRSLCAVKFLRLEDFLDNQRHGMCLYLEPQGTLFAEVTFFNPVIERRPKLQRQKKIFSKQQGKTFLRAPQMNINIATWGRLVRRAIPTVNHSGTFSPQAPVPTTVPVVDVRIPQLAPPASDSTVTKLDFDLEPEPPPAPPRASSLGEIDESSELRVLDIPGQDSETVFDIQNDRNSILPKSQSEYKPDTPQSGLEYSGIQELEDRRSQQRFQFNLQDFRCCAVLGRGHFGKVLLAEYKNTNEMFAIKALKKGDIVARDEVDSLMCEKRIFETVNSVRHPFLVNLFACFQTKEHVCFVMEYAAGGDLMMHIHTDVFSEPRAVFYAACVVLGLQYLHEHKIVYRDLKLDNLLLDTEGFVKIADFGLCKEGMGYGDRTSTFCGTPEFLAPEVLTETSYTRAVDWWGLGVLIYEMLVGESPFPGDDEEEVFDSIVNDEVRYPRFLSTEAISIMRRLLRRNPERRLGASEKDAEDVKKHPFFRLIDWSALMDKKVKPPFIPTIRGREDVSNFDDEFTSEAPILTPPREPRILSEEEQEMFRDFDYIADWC

[12] = target: T12, CDC2L2 (Homo sapiens, UniProt Q9UQ88)
T12 construct: purchased Eurofins DiscoverX KINOMEscan
T12 sequence (Q9UQ88 1-783): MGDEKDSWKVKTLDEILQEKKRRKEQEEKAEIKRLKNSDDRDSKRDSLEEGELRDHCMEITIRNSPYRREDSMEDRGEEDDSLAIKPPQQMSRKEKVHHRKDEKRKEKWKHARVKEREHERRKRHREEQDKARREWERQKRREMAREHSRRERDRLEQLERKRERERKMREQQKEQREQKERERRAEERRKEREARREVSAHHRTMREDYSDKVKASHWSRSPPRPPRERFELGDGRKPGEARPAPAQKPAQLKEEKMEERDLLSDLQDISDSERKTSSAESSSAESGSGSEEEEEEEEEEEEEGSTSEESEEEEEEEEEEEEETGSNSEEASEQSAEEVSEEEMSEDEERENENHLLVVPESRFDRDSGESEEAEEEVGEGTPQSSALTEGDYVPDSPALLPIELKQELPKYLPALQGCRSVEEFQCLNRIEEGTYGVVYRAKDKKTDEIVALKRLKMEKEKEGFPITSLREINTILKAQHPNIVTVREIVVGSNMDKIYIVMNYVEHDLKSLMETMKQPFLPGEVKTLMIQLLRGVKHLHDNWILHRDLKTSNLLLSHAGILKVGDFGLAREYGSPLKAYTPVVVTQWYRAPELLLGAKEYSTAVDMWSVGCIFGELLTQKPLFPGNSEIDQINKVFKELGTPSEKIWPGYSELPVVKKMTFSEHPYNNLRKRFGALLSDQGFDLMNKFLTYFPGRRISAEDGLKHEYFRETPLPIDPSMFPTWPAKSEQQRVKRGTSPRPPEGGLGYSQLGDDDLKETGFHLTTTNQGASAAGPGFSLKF

[13] = target: T13, BRAF (Homo sapiens, UniProt P15056)
T13 construct: purchased Eurofins DiscoverX KINOMEscan
T13 sequence (P15056 whole entry): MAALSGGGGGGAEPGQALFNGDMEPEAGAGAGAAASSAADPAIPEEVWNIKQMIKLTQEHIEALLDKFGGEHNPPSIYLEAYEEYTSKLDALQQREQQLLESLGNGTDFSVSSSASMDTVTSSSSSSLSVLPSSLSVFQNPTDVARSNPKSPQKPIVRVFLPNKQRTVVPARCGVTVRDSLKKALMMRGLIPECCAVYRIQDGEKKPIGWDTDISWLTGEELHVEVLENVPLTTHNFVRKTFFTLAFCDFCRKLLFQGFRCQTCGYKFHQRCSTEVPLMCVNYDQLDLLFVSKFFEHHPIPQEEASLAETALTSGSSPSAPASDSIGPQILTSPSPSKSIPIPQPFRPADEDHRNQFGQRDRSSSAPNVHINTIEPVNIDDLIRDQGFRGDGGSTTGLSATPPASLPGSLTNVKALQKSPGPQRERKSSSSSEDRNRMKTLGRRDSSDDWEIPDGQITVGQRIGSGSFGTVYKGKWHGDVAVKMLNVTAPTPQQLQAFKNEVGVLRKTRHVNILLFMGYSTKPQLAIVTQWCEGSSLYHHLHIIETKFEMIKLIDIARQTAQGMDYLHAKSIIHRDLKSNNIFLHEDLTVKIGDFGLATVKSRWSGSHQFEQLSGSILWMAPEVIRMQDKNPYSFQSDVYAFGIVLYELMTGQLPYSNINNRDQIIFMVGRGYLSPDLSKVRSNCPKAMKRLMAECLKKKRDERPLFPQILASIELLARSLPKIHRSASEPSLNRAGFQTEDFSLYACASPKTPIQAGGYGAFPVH

T2 sequence (Q8IVW4 whole entry): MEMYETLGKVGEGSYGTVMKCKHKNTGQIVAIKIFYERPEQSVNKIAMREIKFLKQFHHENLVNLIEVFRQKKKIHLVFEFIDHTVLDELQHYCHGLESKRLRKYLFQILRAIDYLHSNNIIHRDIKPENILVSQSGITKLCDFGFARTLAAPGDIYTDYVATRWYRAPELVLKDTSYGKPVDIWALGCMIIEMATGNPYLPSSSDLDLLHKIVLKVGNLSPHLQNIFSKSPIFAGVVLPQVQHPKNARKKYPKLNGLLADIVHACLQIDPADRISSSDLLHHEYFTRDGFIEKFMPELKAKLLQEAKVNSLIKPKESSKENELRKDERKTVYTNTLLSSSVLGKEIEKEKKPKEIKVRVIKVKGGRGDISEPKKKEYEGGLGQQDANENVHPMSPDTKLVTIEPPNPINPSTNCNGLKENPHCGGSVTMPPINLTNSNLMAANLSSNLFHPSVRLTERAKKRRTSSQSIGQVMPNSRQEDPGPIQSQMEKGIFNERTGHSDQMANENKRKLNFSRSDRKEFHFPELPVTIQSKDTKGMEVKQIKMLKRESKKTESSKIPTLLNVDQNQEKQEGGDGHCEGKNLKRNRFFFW

SMILES	remaining binding at 1 µM [1] [%]	remaining binding at 1 µM [2] [%]	remaining binding at 1 µM [3] [%]	remaining binding at 1 µM [4] [%]	remaining binding at 1 µM [5] [%]	remaining binding at 1 µM [6] [%]	remaining binding at 1 µM [7] [%]	remaining binding at 1 µM [8] [%]	remaining binding at 1 µM [9] [%]	remaining binding at 1 µM [10] [%]	remaining binding at 1 µM [11] [%]	remaining binding at 1 µM [12] [%]	remaining binding at 1 µM [13] [%]
Clc1cc(NCC2CC2)c2ncc(-c3ccc4[nH]ncc4c3)n2n1 [compound 2, 6-Chloro-N-(cyclopropylmethyl)-3-(1H-indazol-5-yl)imidazo[1,2-b]pyridazin-8-amine]	100	100	69	67	100	91	100	90	79	98	100	100	98
O=C(CN1CCOCC1)N[C@H]1CC[C@H](Nc2cc(Cl)nn3c(-c4ccc5[nH]ncc5c4)cnc23)CC1 [compound 26]	40	88	86	24	88	93	100	89	80	100	100	99	98
CN1CCC(CNc2cc(Cl)nn3c(-c4cc5nc(Nc6ccccc6)[nH]c5cc4F)cnc23)CC1 [compound 31, 6-Chloro-3-(6-fluoro-2-(phenylamino)-1H-benzo[d]imidazol-5-yl)-N-((1-methylpiperidin-4-yl)methyl)imidazo[1,2-b]pyridazin-8-amine]	91	90	99	91	92	96	96	90	88	100	98	90	96
